Laboratory results: publication PMC6683251, “Flavanol Bioavailability in Two Cocoa Products with Different Phenolic Content. A Comparative Study in Humans” (Nutrients, 2019)
Where “and” joins values, the source holds several entries; their conditions need not be identical. Equal values may be shown once. Read-outs that look alike come from different tables or passages of the source.

Columns and labels:
[1] = Plasma nutrikinetics of flavanol metabolites after a single serving of soluble cocoa product (HPLC-ESI-QToF-MS); format: in vivo, human; conditions: for Tmax / Cmax: human plasma; for Tmax / AUC / Cmax: mean ± SD, n = 13; for Tmax: read-out: Tmax; for AUC: human plasma 0-8 h, read-out: AUC
Method: The study was carried out in thirteen healthy subjects (3 men and 10 women); the mens’ average age and body mass index were 26.67 ± 3.21 year and 22.47 ± 2.97 kg/m^2, respectively, and womens’ were 32.60 ± 9.85 year and 23.36 ± 3.73 kg/m^2, respectively. They were non-smoker, non-vegetarian, non-pregnant women, who were not taking any medication or nutritional supplements, and were not suffering from any chronic pathology or gastrointestinal disorder. The sample size was estimated attending to similar previous bioavailability studies. The volunteers gave their informed consent prior to participation.
The present randomized, single-blind study was carried out at the Human Nutrition Unit (HNU) of the Institute of Food Science, Technology and Nutrition (ICTAN). Volunteers attended the HNU on two days, separated by two weeks. Three days previous to each visit, participants were instructed not to consume cocoa products (chocolate, soluble cocoa, etc.), juices, tea, wine, grape must, oranges, tangerines, apples, grapes, strawberries or other berries, beets, onions, soybeans and soy derivatives. In addition, volunteers were asked to complete a 24 h food intake recall the day before they attended the HNU in order to monitor any possible food restriction incompliance.
On each intervention day, volunteers arrived at the HNU after an overnight fast. Prior to the intake of the soluble cocoa product, a nurse inserted a cannula in the cubital vein of the non-prevailing arm of the volunteers and blood samples were collected into EDTA-coated tubes at baseline (t = 0) and 0.5, 1, 2, 3, 4, 6, and 8 h after consuming the corresponding cocoa product. The soluble cocoa products, either 15 g of CC or 25 g CC-PP, were dissolved in 200 mL of semi-skimmed milk following manufacturer’s preparation instructions. Plasma was separated by centrifugation (10 min, 3000 rpm, 4 °C) and stored at −80 °C until further analysis. Urine samples were collected at different time intervals (t = −2–0, 0–4, 4–8, 8–12, and 12–24 h) in urine collection flasks that contained 0.5 g of ascorbic acid as preservative and were aliquoted and frozen at −20 °C until analysis. A polyphenol-free breakfast, lunch and afternoon snack were provided 2 h, 4 h, and 8 h after consumption of cocoa products, and water and isotonic beverages were available ad libitum.
A liquid–liquid extraction and protein precipitation with acetonitrile was used to isolate metabolites from plasma. A 1 mL defrosted plasma sample was mixed with 50 μL of ascorbic acid (0.2 g/mL). After vortexing the aqueous mixture, it was added drop wise to 750 μL of cold acetonitrile and vortexed for 2 min before centrifuging at 12,000 rpm for 10 min at 4 °C. The supernatant was separated, and the pellet was re-extracted twice more following the same procedure. Supernatants were combined and reduced to dryness under a stream of nitrogen at 30 °C. The dried samples were resuspended in 150 μL of aqueous formic acid (0.1%) containing 10% acetonitrile acidified with 0.1% formic acid and centrifuged at 4 °C for 20 min at 14,000 rpm. The final supernatant was collected, filtered (0.45 μm pore-size, cellulose-acetate membrane filters, Albet, Dassel (Germany)) and 30 μL were analyzed by high-performance liquid chromatography coupled to electrospray ionisation and quadrupole time-of-flight mass spectrometry (HPLC-ESI-QToF-MS).
Analyses were performed on an Agilent 1200 series LC system coupled to an Agilent 6530A Accurate-Mass Quadrupole Time-Of-Flight (Q-ToF) with ESI-Jet Stream Technology (Agilent Technologies). Compounds were separated on a reverse-phase Ascentis Express C18 (15 cm × 3 mm, […]) column (Sigma-Aldrich Química, Madrid) preceded by a Supelco 55215-U guard column at 30 °C. […]

[2] = Urinary excretion of flavanol metabolites (0-24 h) after a single serving of soluble cocoa product (HPLC-ESI-QToF-MS); format: in vivo, human; conditions: for Excreted in urine, Basal: basal urine (−2–0 h, before intake); for Excreted in urine, Basal / Excreted in urine, Total / Excreted in urine, 0–4 h / Excreted in urine, 4–8 h / Excreted in urine, 8–12 h / Excreted in urine, 12–24 h: mean ± SD, n = 13; for Excreted in urine, Total: 24 h urine
Outline: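 Fasted women drank 15 g CC or 25 g CC-PP soluble cocoa in 200 mL semi-skimmed milk, in a randomized, single-blind design with visits two weeks apart and a 3-day low-polyphenol diet beforehand. Excreted amounts were normalized to urine volume per interval, quantified against standards or precursor calibration curves.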

[3] = parameters: method as in PMID 23864538; conditions: based on recovery in the perfusion fluid, eight volunteers; cited from earlier work
[4] = cited from earlier work
[5] = both sexes, oral, 19.8 mg, after CC (19.80 mg flavanols)
[6] = both sexes, oral, after CC-PP (68.25 mg flavanols)
[7] = both sexes, oral, after CC-PP (25 g in 200 mL semi-skimmed milk, 68.25 mg flavanols), read-out: Cmax
[8] = after CC-PP (68.25 mg flavanols)
[9] = both sexes, oral, after CC (15 g in 200 mL semi-skimmed milk, 19.80 mg flavanols), read-out: Cmax

SMILES | Tmax [1, 5] [h] | AUC [1, 6] [µM·h] | Tmax [1, 6] [h] | Cmax [1, 7] [nM] | Excreted in urine, Basal ([2]; CC intervention) | Excreted in urine, Basal ([2]; CC-PP intervention) | Excreted in urine, Total ([2]; after CC (19.80 mg flavanols)) [µmol] | Excreted in urine, 0–4 h ([2]; after CC (19.80 mg flavanols)) | Excreted in urine, 4–8 h ([2]; after CC (19.80 mg flavanols)) [µmol] | Excreted in urine, 8–12 h ([2]; after CC (19.80 mg flavanols)) | Excreted in urine, 12–24 h ([2]; after CC (19.80 mg flavanols)) | Excreted in urine, Total [2, 8] | Excreted in urine, 0–4 h [2, 8] | Excreted in urine, 4–8 h [2, 8] [µmol] | Excreted in urine, 8–12 h [2, 8] [µmol] | Excreted in urine, 12–24 h [2, 8] | AUC [1, 5] [µM·h] | Cmax [1, 9] [nM] | other results
O=C1CCC(Cc2cccc(OS(=O)(=O)O)c2)O1 (stereo not drawn) [PVL-3′-sulfate, 5-Phenyl-γ-valerolactone-3′-sulfate] | 4 to 6 | 0.161 ± 0.105 | 5.2 ± 2.2 | 39 ± 14 | <L.Q. | <L.Q. | 1.691 ± 0.802 | <L.Q. | 0.860 ± 0.385 | 0.456 ± 0.284 µmol | 0.375 ± 0.133 µmol | 7.8 µmol and 7.752 ± 2.868 µmol | 0.651 ± 0.389 µmol | 4.188 ± 1.535 | 1.223 ± 0.373 | 1.690 ± 0.572 µmol | – | – | Cmax ([1]; after CC (15 g in 200 mL semi-skimmed milk, 19.80 mg flavanols)): traces level
O=S(=O)(O)Oc1cc([C@H]2Oc3cc(O)cc(O)c3C[C@H]2O)ccc1O [Epicatechin-3′-sulfate] | 1 ± 0.1 | 0.109 ± 0.076 | 1.2 ± 0.5 | 42 ± 4 | – | – | 2.417 ± 0.439 | 1.323 ± 0.236 µmol | 1.018 ± 0.178 | 0.076 ± 0.025 µmol | <L.Q. | 7.357 ± 1.523 µmol | 3.627 ± 0.797 µmol | 3.572 ± 0.662 | 0.158 ± 0.038 | <L.Q. | 0.101 ± 0.023 | 26 ± 3 | –
Oc1cc(O)c2c(c1)O[C@H](c1ccc(O)c(O)c1)[C@H](O)C2 [epicatechin] | – | – | – | – | – | – | – | – | – | – | – | – | – | – | – | – | – | – | Detection of un-metabolized compound in the collected biological fluids ([1]; plasma and urine, CC and CC-PP): Neither un-metabolized epicatechin and catechin nor procyanidins B1 and B2 were detected; Jejunal absorption, average [3]: ~ 46%; Detection of un-metabolized compound in urine ([2]; any of the interventions (CC, CC-PP)): Neither epicatechin nor PB2 dimer was detected in urine; Excretion ([4]; after ingestion of chocolate providing 220 mg of flavanols): 29.8%; Excretion ([4]; after ingestion of cocoa providing 220 mg of flavanols): 25.3%
O=C1CCC(Cc2ccc(O)c(O)c2)O1 (stereo not drawn) [DHPVL, 5-(3′,4′-Dihydroxyphenyl)-γ-valerolactone] | 6 ± 1.6 | 0.192 ± 0.029 | 5.5 ± 1.4 | 37 ± 7 | <L.Q. | <L.Q. | 0.146 ± 0.032 | <L.Q. | 0.146 ± 0.032 | <L.Q. | <L.Q. | 1.084 ± 0.199 µmol | <L.Q. | 0.628 ± 0.087 | 0.174 ± 0.029 | 0.282 ± 0.082 µmol | 0.124 ± 0.073 | 35 ± 8 | –
COc1cc([C@H]2Oc3cc(O)cc(OS(=O)(=O)O)c3C[C@H]2O)ccc1O (single isomer, unassigned) [Epicatechin-methoxy-sulfate (isomer 1), Epicatechin-methoxy-sulfate] | 1.3 ± 0.6 | 0.173 ± 0.107 | 1.1 ± 0.6 | 41 ± 2 | – | – | 4.428 ± 0.800 | 2.717 ± 0.457 µmol | 1.300 ± 0.197 | 0.154 ± 0.031 µmol | 0.257 ± 0.114 µmol | 12.481 ± 2.243 µmol | 8.642 ± 1.434 µmol | 3.277 ± 0.644 | 0.330 ± 0.095 | 0.232 ± 0.070 µmol | 0.122 ± 0.025 | 31 ± 3 | –
